Assays:
[1] = biological target: T1, STAT6 protein (Homo sapiens, UniProt P42226); assay: Fluorescence polarization (FP) binding assay, STAT6; conditions: FP competition, 5 nM fluorescein-labeled tracer, 200 nM protein, PBS pH7.4; read-out: Binding STAT6
T1 sequence (P42226 1-847): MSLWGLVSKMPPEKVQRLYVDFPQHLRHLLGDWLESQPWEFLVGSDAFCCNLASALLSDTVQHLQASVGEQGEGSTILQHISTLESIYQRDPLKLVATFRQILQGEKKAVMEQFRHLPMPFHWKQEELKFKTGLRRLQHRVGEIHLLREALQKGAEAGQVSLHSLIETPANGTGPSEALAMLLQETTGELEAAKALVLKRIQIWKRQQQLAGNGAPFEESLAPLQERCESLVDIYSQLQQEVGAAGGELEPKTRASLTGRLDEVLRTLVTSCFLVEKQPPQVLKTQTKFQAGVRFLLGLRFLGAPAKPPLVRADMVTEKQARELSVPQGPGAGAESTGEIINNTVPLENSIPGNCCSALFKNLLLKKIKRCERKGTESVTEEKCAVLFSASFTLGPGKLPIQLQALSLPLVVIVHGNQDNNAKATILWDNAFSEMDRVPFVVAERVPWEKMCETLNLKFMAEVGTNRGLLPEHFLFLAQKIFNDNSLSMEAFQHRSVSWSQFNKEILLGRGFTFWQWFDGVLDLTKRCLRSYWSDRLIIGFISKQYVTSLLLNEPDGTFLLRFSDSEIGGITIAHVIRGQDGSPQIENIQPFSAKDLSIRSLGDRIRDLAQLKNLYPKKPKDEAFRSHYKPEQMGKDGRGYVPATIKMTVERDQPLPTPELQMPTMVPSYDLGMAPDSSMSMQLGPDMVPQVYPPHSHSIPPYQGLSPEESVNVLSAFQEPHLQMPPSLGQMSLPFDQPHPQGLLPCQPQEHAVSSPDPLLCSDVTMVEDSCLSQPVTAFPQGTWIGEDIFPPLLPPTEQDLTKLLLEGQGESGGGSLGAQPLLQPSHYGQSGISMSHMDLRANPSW
Outline: (§1)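 Fluorescein-labelled tracer (5 nM) with 200 nM STAT5 and/or STAT6 protein in PBS pH 7.4, 0.01% BGG, 0.01% Tween-20, 2 mM DTT. Mixed 15 min, then equilibrated 1 h at room temperature; read by fluorescence polarization, constants from nonlinear curve fitting.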

[2] = biological target: T2, STAT5A (Homo sapiens, UniProt P42229); assay: Fluorescence polarization (FP) binding assay, STAT5A; conditions: FP competition, 5 nM fluorescein-labeled tracer, 200 nM protein, PBS pH7.4
T2 sequence (P42229 1-794): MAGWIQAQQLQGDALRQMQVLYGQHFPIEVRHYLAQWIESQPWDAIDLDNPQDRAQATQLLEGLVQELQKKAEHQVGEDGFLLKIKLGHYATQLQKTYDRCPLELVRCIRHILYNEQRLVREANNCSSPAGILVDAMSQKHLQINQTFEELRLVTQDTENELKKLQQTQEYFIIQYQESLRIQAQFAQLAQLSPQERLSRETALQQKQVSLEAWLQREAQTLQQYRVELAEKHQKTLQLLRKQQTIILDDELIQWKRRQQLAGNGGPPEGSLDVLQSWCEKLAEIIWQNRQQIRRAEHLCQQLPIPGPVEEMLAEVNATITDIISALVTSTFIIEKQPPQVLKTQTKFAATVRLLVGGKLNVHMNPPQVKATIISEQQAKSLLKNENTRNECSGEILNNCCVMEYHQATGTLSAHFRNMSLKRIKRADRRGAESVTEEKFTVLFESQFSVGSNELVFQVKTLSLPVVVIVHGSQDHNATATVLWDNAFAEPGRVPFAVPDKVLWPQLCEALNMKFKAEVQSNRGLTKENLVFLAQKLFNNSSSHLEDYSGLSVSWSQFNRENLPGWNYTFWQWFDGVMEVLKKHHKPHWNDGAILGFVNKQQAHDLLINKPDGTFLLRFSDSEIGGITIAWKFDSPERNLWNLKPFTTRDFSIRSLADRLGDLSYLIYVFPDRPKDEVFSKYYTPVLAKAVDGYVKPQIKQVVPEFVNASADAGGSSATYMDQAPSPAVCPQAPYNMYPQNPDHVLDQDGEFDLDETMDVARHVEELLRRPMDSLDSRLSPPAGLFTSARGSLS
Outline: as §1

SMILES	Ki [1] [µM]	Ki [2] [µM]
CC(=O)N1CC[C@H]2CCN(C(=O)[C@@H]3CCCN3C(=O)[C@@H](NC(=O)c3cc4cc(C(F)(F)P(=O)(O)O)ccc4s3)C(C)(C)C)[C@H]2C1 [Compound 90, ((2-(((S)-1-((S)-2-((3aS,7aR)-6-acetyloctahydro-1H-pyrrolo[2,3-c]pyridine-1-carbonyl)pyrrolidin-1-yl)-3,3-dimethyl-1-oxobutan-2-yl)carbamoyl)benzo[b]thiophen-5-yl)difluoromethyl)phosphonic acid]	> 10	> 10
CCCCC(=O)N1CC[C@H]2CCN(C(=O)[C@@H]3CCCN3C(=O)[C@@H](NC(=O)c3cc4cc(C(F)(F)P(=O)(O)O)ccc4s3)C(C)(C)C)[C@H]2C1 [Compound 91, ((2-(((S)-3,3-dimethyl-1-oxo-1-((S)-2-((3aS,7aR)-6-pentanoyloctahydro-1H-pyrrolo[2,3-c]pyridine-1-carbonyl)pyrrolidin-1-yl)butan-2-yl)carbamoyl)benzo[b]thiophen-5-yl)difluoromethyl)phosphonic acid]	> 10	> 10
CC(=O)N1C[C@@H]2CCN(C(=O)[C@@H]3CCCN3C(=O)[C@@H](NC(=O)c3cc4cc(C(F)(F)P(=O)(O)O)ccc4s3)C(C)(C)C)[C@@H]2C1 [Compound 92, ((2-(((S)-1-((S)-2-((3aS,6aS)-5-acetyloctahydropyrrolo[3,4-b]pyrrole-1-carbonyl)pyrrolidin-1-yl)-3,3-dimethyl-1-oxobutan-2-yl)carbamoyl)benzo[b]thiophen-5-yl)difluoromethyl)phosphonic acid]	> 10	> 10
CCCCC(=O)N1C[C@@H]2CCN(C(=O)[C@@H]3CCCN3C(=O)[C@@H](NC(=O)c3cc4cc(C(F)(F)P(=O)(O)O)ccc4s3)C(C)(C)C)[C@@H]2C1 [Compound 93, ((2-(((S)-3,3-dimethyl-1-oxo-1-((S)-2-((3aS,6aS)-5-pentanoyloctahydropyrrolo[3,4-b]pyrrole-1-carbonyl)pyrrolidin-1-yl)butan-2-yl)carbamoyl)benzo[b]thiophen-5-yl)difluoromethyl)phosphonic acid]	> 10	> 10
CC(C)(C)[C@H](NC(=O)c1cc2cc(C(F)(F)P(=O)(O)O)ccc2s1)C(=O)N1CCC[C@H]1C(=O)N1CC[C@H]2CN(C(=O)c3ccc(F)cc3)C[C@H]21 [Compound 94, (difluoro(2-(((S)-1-((S)-2-((3aS,6aS)-5-(4-fluorobenzoyl)octahydropyrrolo[3,4-b]pyrrole-1-carbonyl)pyrrolidin-1-yl)-3,3-dimethyl-1-oxobutan-2-yl)carbamoyl)benzo[b]thiophen-5-yl)methyl)phosphonic acid]	> 10	> 10
CC(=O)N1CC[C@H]2CN(C(=O)[C@@H]3CCCN3C(=O)[C@@H](NC(=O)c3cc4cc(C(F)(F)P(=O)(O)O)ccc4s3)C(C)(C)C)C[C@H]21 [Compound 95, ((2-(((S)-1-((S)-2-((3aS,6aS)-1-acetyloctahydropyrrolo[3,4-b]pyrrole-5-carbonyl)pyrrolidin-1-yl)-3,3-dimethyl-1-oxobutan-2-yl)carbamoyl)benzo[b]thiophen-5-yl)difluoromethyl)phosphonic acid]	> 10	> 10
CCCCC(=O)N1CC[C@H]2CN(C(=O)[C@@H]3CCCN3C(=O)[C@@H](NC(=O)c3cc4cc(C(F)(F)P(=O)(O)O)ccc4s3)C(C)(C)C)C[C@H]21 [Compound 96, ((2-(((S)-3,3-dimethyl-1-oxo-1-((S)-2-((3aS,6aS)-1-pentanoyloctahydropyrrolo[3,4-b]pyrrole-5-carbonyl)pyrrolidin-1-yl)butan-2-yl)carbamoyl)benzo[b]thiophen-5-yl)difluoromethyl)phosphonic acid]	> 10	> 10
CC(C)(C)[C@H](NC(=O)c1cc2cc(C(F)(F)P(=O)(O)O)ccc2s1)C(=O)N1CCC[C@H]1C(=O)N1C[C@@H]2CCN(C(=O)c3ccc(F)cc3)[C@@H]2C1 [Compound 97, (difluoro(2-(((S)-1-((S)-2-((3aS,6aS)-1-(4-fluorobenzoyl)octahydropyrrolo[3,4-b]pyrrole-5-carbonyl)pyrrolidin-1-yl)-3,3-dimethyl-1-oxobutan-2-yl)carbamoyl)benzo[b]thiophen-5-yl)methyl)phosphonic acid]	> 10	> 10
CC1(c2ccc(F)cc2)CN(C(=O)[C@@H]2CCCN2C(=O)[C@@H](NC(=O)c2cc3cc(C(F)(F)P(=O)(O)O)ccc3s2)C(C)(C)C)CCO1 (stereo partly drawn) [Compound 100, (difluoro(2-(((2S)-1-((2S)-2-(2-(4-fluorophenyl)-2-methylmorpholine-4-carbonyl)pyrrolidin-1-yl)-3,3-dimethyl-1-oxobutan-2-yl)carbamoyl)benzo[b]thiophen-5-yl)methyl)phosphonic acid]	1 to 10	> 10
CC1(c2ccc(Cl)cc2)CN(C(=O)[C@@H]2CCCN2C(=O)[C@@H](NC(=O)c2cc3cc(C(F)(F)P(=O)(O)O)ccc3s2)C(C)(C)C)CCO1 (stereo partly drawn) [Compound 101, ((2-(((2S)-1-((2S)-2-(2-(4-chlorophenyl)-2-methylmorpholine-4-carbonyl)pyrrolidin-1-yl)-3,3-dimethyl-1-oxobutan-2-yl)carbamoyl)benzo[b]thiophen-5-yl)difluoromethyl)phosphonic acid]	1 to 10	> 10
CC(C)(C)[C@H](NC(=O)c1cc2cc(C(F)(F)P(=O)(O)O)ccc2s1)C(=O)N1CCC[C@H]1C(=O)N1CCOC(c2ccc(F)cc2)C1 (stereo partly drawn) [Compound 102, (difluoro(2-(((2S)-1-((2S)-2-(2-(4-fluorophenyl)morpholine-4-carbonyl)pyrrolidin-1-yl)-3,3-dimethyl-1-oxobutan-2-yl)carbamoyl)benzo[b]thiophen-5-yl)methyl)phosphonic acid]	0.1 to 1	> 10
CC(C)(C)[C@H](NC(=O)c1cc2cc(C(F)(F)P(=O)(O)O)ccc2s1)C(=O)N1CCC[C@H]1C(=O)N1CCOC(c2cccc(Cl)c2)C1 (stereo partly drawn) [Compound 103, ((2-(((2S)-1-((2S)-2-(2-(3-chlorophenyl)morpholine-4-carbonyl)pyrrolidin-1-yl)-3,3-dimethyl-1-oxobutan-2-yl)carbamoyl)benzo[b]thiophen-5-yl)difluoromethyl)phosphonic acid]	1 to 10	1 to 10
CC(C)(C)[C@H](NC(=O)c1cc2cc(C(F)(F)P(=O)(O)O)ccc2s1)C(=O)N1CCC[C@H]1C(=O)N1CCOC(c2cc(F)c(Cl)cc2Cl)C1 (stereo partly drawn) [Compound 104, ((2-(((2S)-1-((2S)-2-(2-(2,4-dichloro-5-fluorophenyl)morpholine-4-carbonyl)pyrrolidin-1-yl)-3,3-dimethyl-1-oxobutan-2-yl)carbamoyl)benzo[b]thiophen-5-yl)difluoromethyl)phosphonic acid]	1 to 10	1 to 10
Cc1ccccc1C1CCCN(C(=O)[C@@H]2CCCN2C(=O)[C@@H](NC(=O)c2cc3cc(C(F)(F)P(=O)(O)O)ccc3s2)C(C)(C)C)C1 (stereo partly drawn) [Compound 105, ((2-(((2S)-3,3-dimethyl-1-oxo-1-((2S)-2-(3-(o-tolyl)piperidine-1-carbonyl)pyrrolidin-1-yl)butan-2-yl)carbamoyl)benzo[b]thiophen-5-yl)difluoromethyl)phosphonic acid]	1 to 10	> 10

— patent publication US20230295200A1 (REGENTS OF THE UNIVERSITY OF MICHIGAN, priority 2022, published 2023)
